Laboratory results as given in ChEMBL document CHEMBL3991601, “The target landscape of clinical kinase drugs” (Science, 2017).
Calls of active or inactive are those of the source.

Experiments:
[1] = molecular target: T1, Very long-chain specific acyl-CoA dehydrogenase, mitochondrial (Homo sapiens, UniProt P49748)
T1 sequence (P49748 whole entry): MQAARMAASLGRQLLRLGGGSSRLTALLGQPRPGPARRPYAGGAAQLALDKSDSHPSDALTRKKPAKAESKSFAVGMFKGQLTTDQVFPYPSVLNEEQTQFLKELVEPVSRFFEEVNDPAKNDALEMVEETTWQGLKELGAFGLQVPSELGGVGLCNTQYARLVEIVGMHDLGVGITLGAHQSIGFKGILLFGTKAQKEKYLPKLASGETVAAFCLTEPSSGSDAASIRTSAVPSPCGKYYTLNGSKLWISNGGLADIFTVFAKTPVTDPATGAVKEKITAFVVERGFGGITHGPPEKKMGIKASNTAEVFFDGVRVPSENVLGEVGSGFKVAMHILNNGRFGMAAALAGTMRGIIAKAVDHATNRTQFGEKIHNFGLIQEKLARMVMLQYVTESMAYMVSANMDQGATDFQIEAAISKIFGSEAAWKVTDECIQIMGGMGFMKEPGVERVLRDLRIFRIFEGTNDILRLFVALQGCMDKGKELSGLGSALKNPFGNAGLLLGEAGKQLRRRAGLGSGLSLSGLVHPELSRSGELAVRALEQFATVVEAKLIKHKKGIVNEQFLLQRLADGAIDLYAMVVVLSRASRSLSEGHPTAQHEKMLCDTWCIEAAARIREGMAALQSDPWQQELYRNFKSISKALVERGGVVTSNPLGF

[2] = molecular target: Cyclin-dependent kinase 7 (Homo sapiens, UniProt P50613)
[3] = molecular target: T2, Discoidin domain-containing receptor 2 (Homo sapiens, UniProt Q16832)
T2 sequence (Q16832 whole entry): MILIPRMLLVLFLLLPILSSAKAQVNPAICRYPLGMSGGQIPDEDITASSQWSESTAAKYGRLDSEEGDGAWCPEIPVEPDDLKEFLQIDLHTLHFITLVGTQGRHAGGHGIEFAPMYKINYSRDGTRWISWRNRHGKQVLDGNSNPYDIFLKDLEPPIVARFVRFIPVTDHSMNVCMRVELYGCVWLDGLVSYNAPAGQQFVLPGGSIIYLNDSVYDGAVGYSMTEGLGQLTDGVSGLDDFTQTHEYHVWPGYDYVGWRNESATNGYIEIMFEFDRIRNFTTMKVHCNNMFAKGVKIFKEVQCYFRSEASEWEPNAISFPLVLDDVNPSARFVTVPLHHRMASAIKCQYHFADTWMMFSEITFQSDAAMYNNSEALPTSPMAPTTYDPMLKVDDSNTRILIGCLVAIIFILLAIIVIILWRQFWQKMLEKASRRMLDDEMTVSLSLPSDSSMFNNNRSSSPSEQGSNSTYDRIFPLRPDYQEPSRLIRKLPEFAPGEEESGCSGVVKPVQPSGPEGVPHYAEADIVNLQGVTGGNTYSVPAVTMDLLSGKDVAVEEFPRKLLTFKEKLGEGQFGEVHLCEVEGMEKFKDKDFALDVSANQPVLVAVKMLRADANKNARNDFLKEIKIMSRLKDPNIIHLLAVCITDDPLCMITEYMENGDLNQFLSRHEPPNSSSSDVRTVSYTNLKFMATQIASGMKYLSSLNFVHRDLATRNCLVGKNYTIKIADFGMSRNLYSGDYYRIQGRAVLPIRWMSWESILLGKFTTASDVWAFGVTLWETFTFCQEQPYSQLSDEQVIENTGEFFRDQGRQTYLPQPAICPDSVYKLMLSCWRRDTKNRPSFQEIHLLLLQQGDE

[4] = molecular target: T3, Electron transfer flavoprotein subunit beta (Homo sapiens, UniProt P38117)
T3 sequence (P38117 whole entry): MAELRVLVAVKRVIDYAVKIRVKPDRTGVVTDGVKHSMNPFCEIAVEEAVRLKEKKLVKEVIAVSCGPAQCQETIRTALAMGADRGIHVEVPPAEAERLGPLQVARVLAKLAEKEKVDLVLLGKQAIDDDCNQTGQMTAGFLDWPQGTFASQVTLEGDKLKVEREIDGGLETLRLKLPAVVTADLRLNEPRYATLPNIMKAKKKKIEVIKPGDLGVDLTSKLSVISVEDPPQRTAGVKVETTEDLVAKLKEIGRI

[5] = molecular target: Dual specificity mitogen-activated protein kinase kinase 2 (Homo sapiens, UniProt P36507)
[6] = molecular target: T4, Dynamin-like GTPase OPA1, mitochondrial (Homo sapiens, UniProt O60313)
T4 sequence (O60313 whole entry): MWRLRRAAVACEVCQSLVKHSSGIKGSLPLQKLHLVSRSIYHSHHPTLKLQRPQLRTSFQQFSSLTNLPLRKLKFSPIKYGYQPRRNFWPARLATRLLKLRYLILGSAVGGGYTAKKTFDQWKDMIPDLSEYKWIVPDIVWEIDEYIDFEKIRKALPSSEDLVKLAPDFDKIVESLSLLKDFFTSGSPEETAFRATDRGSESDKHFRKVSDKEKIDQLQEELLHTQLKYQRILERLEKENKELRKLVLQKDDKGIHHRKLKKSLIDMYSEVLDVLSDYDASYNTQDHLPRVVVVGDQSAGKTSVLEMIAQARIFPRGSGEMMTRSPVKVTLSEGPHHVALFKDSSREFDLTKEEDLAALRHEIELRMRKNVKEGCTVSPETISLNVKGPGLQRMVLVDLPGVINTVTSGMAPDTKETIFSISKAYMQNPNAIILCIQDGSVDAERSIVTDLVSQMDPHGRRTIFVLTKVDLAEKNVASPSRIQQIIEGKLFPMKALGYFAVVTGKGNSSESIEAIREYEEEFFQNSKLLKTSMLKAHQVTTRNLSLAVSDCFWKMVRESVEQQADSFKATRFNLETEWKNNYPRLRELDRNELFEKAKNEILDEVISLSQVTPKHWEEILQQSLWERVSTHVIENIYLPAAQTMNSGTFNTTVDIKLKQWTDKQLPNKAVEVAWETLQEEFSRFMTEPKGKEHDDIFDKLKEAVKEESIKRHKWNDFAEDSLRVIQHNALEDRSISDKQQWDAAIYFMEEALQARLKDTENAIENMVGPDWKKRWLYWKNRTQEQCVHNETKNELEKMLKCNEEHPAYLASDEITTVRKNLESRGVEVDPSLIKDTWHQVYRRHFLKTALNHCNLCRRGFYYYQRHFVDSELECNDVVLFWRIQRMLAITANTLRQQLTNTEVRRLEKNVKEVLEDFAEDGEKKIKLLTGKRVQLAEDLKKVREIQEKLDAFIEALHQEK

[7] = molecular target: Elongation factor Tu, mitochondrial (Homo sapiens, UniProt P49411)
Further: in the data inactive means no Kd found up to 30 µM.

Sequence of Dual specificity mitogen-activated protein kinase kinase 2 (P36507 whole entry): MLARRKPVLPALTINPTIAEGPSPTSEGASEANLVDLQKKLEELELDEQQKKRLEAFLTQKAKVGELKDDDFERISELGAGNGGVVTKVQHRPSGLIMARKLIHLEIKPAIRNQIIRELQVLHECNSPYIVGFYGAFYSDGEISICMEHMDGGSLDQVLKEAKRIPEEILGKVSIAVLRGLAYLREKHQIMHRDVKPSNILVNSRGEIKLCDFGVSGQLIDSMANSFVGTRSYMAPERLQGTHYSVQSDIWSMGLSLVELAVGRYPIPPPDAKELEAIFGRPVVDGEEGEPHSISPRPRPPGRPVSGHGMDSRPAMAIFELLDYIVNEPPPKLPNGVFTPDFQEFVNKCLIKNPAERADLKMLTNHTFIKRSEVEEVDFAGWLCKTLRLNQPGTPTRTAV
Sequence of Cyclin-dependent kinase 7 (P50613 whole entry, the tested form may be a part): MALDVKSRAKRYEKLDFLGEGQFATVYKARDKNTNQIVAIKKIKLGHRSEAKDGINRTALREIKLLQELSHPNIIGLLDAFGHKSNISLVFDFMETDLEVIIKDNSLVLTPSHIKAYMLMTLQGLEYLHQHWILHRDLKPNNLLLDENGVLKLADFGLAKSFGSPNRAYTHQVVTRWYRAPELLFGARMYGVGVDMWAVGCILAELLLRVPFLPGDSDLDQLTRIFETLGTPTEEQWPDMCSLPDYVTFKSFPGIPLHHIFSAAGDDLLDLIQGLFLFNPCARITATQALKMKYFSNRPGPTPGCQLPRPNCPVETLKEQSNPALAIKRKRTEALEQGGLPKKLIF

In the case of `C=CC(=O)Nc1cccc(Nc2nc(Nc3ccc(N4CCN(C(C)=O)CC4)cc3OC)ncc2C(F)(F)F)c1` [ROCILETINIB], the Kd [1] is reported as > 30 µM (inactive), the Kd [2] is reported as > 30 µM (inactive) and the Kd [3] is reported as > 30 µM (inactive). The Kd [4] was > 30 µM (inactive), the Kd [5] was > 30 µM (inactive) and the Kd [6] was > 30 µM (inactive). For the same molecule, the Kd [7] was > 30 µM (inactive).

For `Cc1ccc(C(=O)Nc2ccc(Oc3cc4cnn(C)c4cc3-c3cn[nH]c3)c(F)c2)c(=O)n1-c1ccc(F)cc1` [MERESTINIB], the Kd [1] was > 30 µM (inactive), the Kd [2] was > 30 µM (inactive) and the Kd [3] was 0.908 µM (active). The Kd [4] was > 30 µM (inactive), the Kd [5] was > 30 µM (inactive) and the Kd [6] was > 30 µM (inactive). For the same molecule, the Kd [7] was > 30 µM (inactive).

In the case of `CCOc1ccn(-c2ccc(F)cc2)c(=O)c1C(=O)Nc1ccc(Oc2ccnc(N)c2Cl)c(F)c1` [BMS-777607], the Kd [1] is reported as > 30 µM (inactive), the Kd [2] is reported as > 30 µM (inactive) and the Kd [3] is reported as 0.065 µM (active). For the same molecule, the Kd [4] was > 30 µM (inactive), the Kd [5] was > 30 µM (inactive) and the Kd [6] was > 30 µM (inactive). For the same molecule, the Kd [7] was > 30 µM (inactive).

In the case of `O=C(O)c1ccc2c(c1)nc(Nc1cccc(Cl)c1)c1ccncc12` [SILMITASERTIB], the Kd [1] is reported as > 30 µM (inactive), the Kd [2] is reported as 7.12 µM (active) and the Kd [3] is reported as > 30 µM (inactive). The Kd [4] was > 30 µM (inactive), the Kd [5] was > 30 µM (inactive) and the Kd [6] was > 30 µM (inactive). For the same molecule, the Kd [7] was > 30 µM (inactive).

`Cc1c(Cn2c(C)nc3c(C(=O)O)cc(N4CCOCC4)cc32)cccc1C(F)(F)F` [GSK-2636771] was tested, and the Kd [1] was > 30 µM (inactive), the Kd [2] was > 30 µM (inactive) and the Kd [3] was > 30 µM (inactive). The Kd [4] was > 30 µM (inactive), the Kd [5] was > 30 µM (inactive) and the Kd [6] was > 30 µM (inactive). The Kd [7] was > 30 µM (inactive).

`Cn1cc(-c2[nH]c3cc(NC(=O)[C@H](N)C4CCCCC4)cc4c3c2C=NNC4=O)cn1` was tested, and the Kd [1] was > 30 µM (inactive), the Kd [2] was > 30 µM (inactive) and the Kd [3] was > 30 µM (inactive). For the same molecule, the Kd [4] was > 30 µM (inactive), the Kd [5] was > 30 µM (inactive) and the Kd [6] was > 30 µM (inactive). The Kd [7] was > 30 µM (inactive).

For `NC(=O)c1ccc(N(C(N)=O)c2c(F)cccc2F)nc1-c1ccc(F)cc1F` [VX-702], the Kd [1] was > 30 µM (inactive), the Kd [2] was > 30 µM (inactive) and the Kd [3] was > 30 µM (inactive). For the same molecule, the Kd [4] was > 30 µM (inactive), the Kd [5] was > 30 µM (inactive) and the Kd [6] was > 30 µM (inactive). The Kd [7] was > 30 µM (inactive).

In the case of `COc1cc2ncnc(Nc3ccc(F)c(Cl)c3)c2cc1NC(=O)/C=C/CN1CCCCC1` [DACOMITINIB ANHYDROUS], the Kd [1] is reported as > 30 µM (inactive), the Kd [2] is reported as > 30 µM (inactive) and the Kd [3] is reported as > 30 µM (inactive). The Kd [4] was > 30 µM (inactive), the Kd [5] was > 30 µM (inactive) and the Kd [6] was > 30 µM (inactive). For the same molecule, the Kd [7] was > 30 µM (inactive).

With `S=C(NCc1ccc2c(c1)OCO2)N1CCN(c2ncnc3c2oc2ccccc23)CC1` [AMUVATINIB] the Kd [1] was > 30 µM (inactive), the Kd [2] was > 30 µM (inactive) and the Kd [3] was > 30 µM (inactive). The Kd [4] was > 30 µM (inactive), the Kd [5] was > 30 µM (inactive) and the Kd [6] was > 30 µM (inactive). For the same molecule, the Kd [7] was > 30 µM (inactive).
